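Protocol summary: plate cells (96-well), add compound at 5 concentrations, incubate 48 h, interpolate endpoints linearly. GI50: concentration for 50% inhibition of growth. Definition used: TGI = concentration required for complete inhibition of growth.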
What was measured:
Test in all cases: NCI anticancer screen, dose series, 48 h
SK-MEL-28 melanoma = system: SK-MEL-28 melanoma
SN12C renal = system: SN12C renal
MDA-MB-468 breast = system: MDA-MB-468 breast
HOP-92 NSCLC = system: HOP-92 NSCLC
M14 melanoma = system: M14 melanoma
SK-MEL-5 melanoma = system: SK-MEL-5 melanoma
SNB-75 CNS = system: SNB-75 CNS
SK-OV-3 ovarian = system: SK-OV-3 ovarian
MALME-3M melanoma = system: MALME-3M melanoma
T-47D breast = system: T-47D breast
SK-MEL-2 melanoma = system: SK-MEL-2 melanoma
RPMI-8226 leukemia = system: RPMI-8226 leukemia
NCI-H226 lung = system: NCI-H226 lung
IGROV1 ovarian = system: IGROV1 ovarian
HS 578T breast = system: HS 578T breast
MDA-MB-231 breast = system: MDA-MB-231 breast
UO-31 renal = system: UO-31 renal
MOLT-4 leukemia = system: MOLT-4 leukemia
SNB-19 CNS = system: SNB-19 CNS
SW-620 colon = system: SW-620 colon
HCC-2998 colon = system: HCC-2998 colon
OVCAR-3 ovarian = system: OVCAR-3 ovarian
ACHN renal = system: ACHN renal
HT29 colon = system: HT29 colon
MDA-MB-435 = system: MDA-MB-435
DU-145 prostate = system: DU-145 prostate
NCI-H23 lung = system: NCI-H23 lung
U251 CNS = system: U251 CNS
HCT-15 colon = system: HCT-15 colon
786-0 renal = system: 786-0 renal
NCI-H460 lung = system: NCI-H460 lung
CCRF-CEM leukemia = system: CCRF-CEM leukemia
A549 NSCLC = system: A549 NSCLC
SF-268 CNS = system: SF-268 CNS
BT-549 breast = system: BT-549 breast
PC-3 prostate = system: PC-3 prostate
HL-60(TB) leukemia = system: HL-60(TB) leukemia
RXF 393 renal = system: RXF 393 renal
TK-10 renal = system: TK-10 renal
OVCAR-5 ovarian = system: OVCAR-5 ovarian
UACC-257 melanoma = system: UACC-257 melanoma
UACC-62 melanoma = system: UACC-62 melanoma
CAKI-1 renal = system: CAKI-1 renal
EKVX NSCLC = system: EKVX NSCLC
NCI-H522 lung = system: NCI-H522 lung
SF-539 CNS = system: SF-539 CNS
OVCAR-8 ovarian = system: OVCAR-8 ovarian
COLO 205 colon = system: COLO 205 colon
HOP-62 NSCLC = system: HOP-62 NSCLC
KM12 colon = system: KM12 colon
SR leukemia = system: SR leukemia
A498 renal = system: A498 renal
OVCAR-4 ovarian = system: OVCAR-4 ovarian
HCT-116 colon = system: HCT-116 colon
NCI/ADR-RES ovarian = system: NCI/ADR-RES ovarian

Cn1cc(-c2cc(N)n3nc(-c4cn(C)c5ccccc45)cc3n2)c2cc(Br)ccc21
GI50 (SK-MEL-28 melanoma): 1.72 µM
TGI (SK-MEL-28 melanoma): 3.14 µM
GI50 (SN12C renal): 1.66 µM
TGI (SN12C renal): 3.18 µM
GI50 (MDA-MB-468 breast): 1.57 µM
TGI (MDA-MB-468 breast): 3.73 µM
GI50 (HOP-92 NSCLC): 1.48 µM
TGI (HOP-92 NSCLC): 3.16 µM
GI50 (M14 melanoma): 1.82 µM
TGI (M14 melanoma): 3.68 µM
GI50 (SK-MEL-5 melanoma): 1.89 µM
TGI (SK-MEL-5 melanoma): 3.5 µM
GI50 (SNB-75 CNS): 2.41 µM
TGI (SNB-75 CNS): 9.59 µM
GI50 (SK-OV-3 ovarian): 3.72 µM
TGI (SK-OV-3 ovarian): 17.2 µM
GI50 (MALME-3M melanoma): 1.66 µM
TGI (MALME-3M melanoma): 3.08 µM
GI50 (T-47D breast): 2.07 µM
TGI (T-47D breast): 5.7 µM
GI50 (SK-MEL-2 melanoma): 1.68 µM
TGI (SK-MEL-2 melanoma): 3.36 µM
GI50 (RPMI-8226 leukemia): 2.48 µM
TGI (RPMI-8226 leukemia): 8.15 µM
GI50 (NCI-H226 lung): 25.1 µM
TGI (NCI-H226 lung): > 100 µM
GI50 (IGROV1 ovarian): 1.82 µM
TGI (IGROV1 ovarian): 5.07 µM
GI50 (HS 578T breast): 2.44 µM
TGI (HS 578T breast): 5.92 µM
GI50 (MDA-MB-231 breast): 1.7 µM
TGI (MDA-MB-231 breast): 3.12 µM
GI50 (UO-31 renal): 1.48 µM
TGI (UO-31 renal): 2.85 µM
GI50 (MOLT-4 leukemia): 1.6 µM
TGI (MOLT-4 leukemia): 7.55 µM
GI50 (SNB-19 CNS): 3.24 µM
TGI (SNB-19 CNS): 25.9 µM
GI50 (SW-620 colon): 2.16 µM
TGI (SW-620 colon): 5 µM
GI50 (HCC-2998 colon): 1.81 µM
TGI (HCC-2998 colon): 3.49 µM
GI50 (OVCAR-3 ovarian): 2.22 µM
TGI (OVCAR-3 ovarian): 5.16 µM
GI50 (ACHN renal): 1.78 µM
TGI (ACHN renal): 4.05 µM
GI50 (HT29 colon): 1.7 µM
TGI (HT29 colon): 3.25 µM
GI50 (MDA-MB-435): 1.87 µM
TGI (MDA-MB-435): 3.67 µM
GI50 (DU-145 prostate): 4.96 µM
TGI (DU-145 prostate): > 100 µM
GI50 (NCI-H23 lung): 2.36 µM
TGI (NCI-H23 lung): 7.02 µM
GI50 (U251 CNS): 1.79 µM
TGI (U251 CNS): 3.65 µM
GI50 (HCT-15 colon): 1.71 µM
TGI (HCT-15 colon): 4.59 µM
GI50 (786-0 renal): 1.57 µM
TGI (786-0 renal): 2.99 µM
GI50 (NCI-H460 lung): 1.96 µM
TGI (NCI-H460 lung): 4.03 µM
GI50 (CCRF-CEM leukemia): 2.87 µM
TGI (CCRF-CEM leukemia): 11.7 µM
GI50 (A549 NSCLC): 2.44 µM
TGI (A549 NSCLC): > 100 µM
GI50 (SF-268 CNS): 2.66 µM
TGI (SF-268 CNS): 8.95 µM
GI50 (BT-549 breast): 2.29 µM
TGI (BT-549 breast): 5.65 µM
GI50 (PC-3 prostate): 1.87 µM
TGI (PC-3 prostate): 4.69 µM
GI50 (HL-60(TB) leukemia): 2.08 µM
TGI (HL-60(TB) leukemia): 5.53 µM
GI50 (RXF 393 renal): 1.8 µM
TGI (RXF 393 renal): 3.46 µM
GI50 (TK-10 renal): 2.19 µM
TGI (TK-10 renal): 4.81 µM
GI50 (OVCAR-5 ovarian): 2.55 µM
TGI (OVCAR-5 ovarian): 7.8 µM
GI50 (UACC-257 melanoma): 1.73 µM
TGI (UACC-257 melanoma): 3.34 µM
GI50 (UACC-62 melanoma): 1.58 µM
TGI (UACC-62 melanoma): 3.05 µM
GI50 (CAKI-1 renal): 1.44 µM
TGI (CAKI-1 renal): 2.96 µM
GI50 (EKVX NSCLC): 1.75 µM
TGI (EKVX NSCLC): 6.71 µM
GI50 (NCI-H522 lung): 1.55 µM
TGI (NCI-H522 lung): 3.21 µM
GI50 (SF-539 CNS): 1.58 µM
TGI (SF-539 CNS): 3.09 µM
GI50 (OVCAR-8 ovarian): 1.83 µM
TGI (OVCAR-8 ovarian): 3.67 µM
GI50 (COLO 205 colon): 1.95 µM
TGI (COLO 205 colon): 3.9 µM
GI50 (HOP-62 NSCLC): 2.24 µM
TGI (HOP-62 NSCLC): 6.01 µM
GI50 (KM12 colon): 2.02 µM
TGI (KM12 colon): 4.66 µM
GI50 (SR leukemia): 1.7 µM
TGI (SR leukemia): 7.3 µM
GI50 (A498 renal): 1.74 µM
TGI (A498 renal): 3.89 µM
GI50 (OVCAR-4 ovarian): 2.46 µM
TGI (OVCAR-4 ovarian): 6.34 µM
GI50 (HCT-116 colon): 1.59 µM
TGI (HCT-116 colon): 2.93 µM
GI50 (NCI/ADR-RES ovarian): 2.45 µM
TGI (NCI/ADR-RES ovarian): 6.77 µM
